Experimental data taken from patent US20050158280A1, “Method of reducing angiogenesis” (priority 2001, published 2005).

Legend:
ATPDase/CD39 [1] = settings: COS-7 cells; cited from earlier work
ATPDase/CD39 [2] = settings: cited from earlier work; for Specific ADPase activity / ATPase activity: HUVEC lysate, n=6; for Specific ADPase activity: mean SD, control liposomes 26.0±3.1; for ATPase activity: control liposomes 28.2±4.6
CD39 = settings: HUVEC, cited from earlier work; for immunoreactive intact CD39 (densitometric analysis of Western blot): 48 h after transfection, control liposomes = 100%
HUVEC [3] = settings: cited from earlier work; for rate of ATP hydrolysis by EC: HUVEC after transfection, n=9, liposome treated controls 17.9
HUVEC [4] = settings: cited from earlier work
CD39 mRNA = settings: HUVEC, 48 h post-transfection; vs scrambled oligonucleotides and control liposomes; cited from earlier work
macrophages = test: Transmigration of macrophages on MATRIGEL-coated Transwell membranes; type: cell-based, mouse; settings: for migration through MATRIGEL (FIG. 5, in words): cd39-null knockout (KO) macrophages; for number of transmigrated macrophages (normalized to wild-type): cd39-null macrophages, nonstimulated null 80±30.0% of wild-type; for number of transmigrated macrophages (normalized to wild-type) / number of transmigrated macrophages (normalized): MATRIGEL-coated Transwell; for number of transmigrated macrophages (normalized): wild-type macrophages, no endothelial cells, ATP 200 μmol/L, serotonin 20 μmol/L, MCP-1 50 ng/mL
Protocol: (§1) Transmigration assays through an endothelial cell monolayer were performed (Jones, G. E. J. Leukoc. Biol. 68:593-602, 2000). Murine 2F2B endothelial cells (ATCC) were plated on collagen type 1-coated polycarbonate inserts with 3-μm pores (Costar, Fisher Scientific) and then incubated in RPMI containing 5% FCS overnight to attain full confluence. Wild-type or cd39-null peritoneal macrophages were added to the upper chamber and incubated at 37° C. in 5% CO2 for 10 hours. In the lower chamber, culture media with chemoattractant factors at various combinations were added: ATP 200 μmol/L, serotonin 20 μmol/L, and monocyte chemoattractant factor-1 (MCP-1) 50 ng/mL. Nonadherent cells in both supernatant fluids were counted. In parallel experiments, inserts were precoated with collagen or MATRIGEL® alone. Wild-type and cd39-null macrophages were plated on the upper surface of coated inserts. Cells were allowed to adhere and migrate over a 6-hour period. Cells on the lower surface were fixed in 2% ethanol and stained with 0.2% crystal violet (Sigma). Four fields of vision (×400) per well were randomly chosen, and cell counts were performed manually by 2 observers in a blinded fashion.

monocyte/macrophages = test: Transmigration of monocyte/macrophages through an endothelial cell monolayer; type: cell-based, mouse
Protocol: as §1

peritoneal macrophages = test: Cytofluorometric (FACS) analysis of macrophage integrin/ICAM-1 surface expression; type: cell-based, mouse; settings: 200 μmol/L, vs control; for αmβ2 (MAC-1) and ICAM-1 coexpression levels: quiescent cd39-null macrophages; for cell surface coexpression of αmβ2 (MAC-1) and ICAM-1: wild-type macrophages, 30 minutes
Protocol: After isolation, naive peritoneal macrophages were also stimulated for 30 minutes (or for 24 hours) in RPMI+5% FCS, both at 37° C., with ATP 200 μmol/L, or with ATPγS 200 μmol/L, and then washed with PBS. Nonspecific binding of isospecific IgG was controlled by incubation with isospecific IgG conjugated to FITC and phycoerythrin, respectively. Cells were double-stained with phycoerythrin-conjugated rat anti-mouse CD11b in conjunction with FITC-labeled anti-mouse intercellular adhesion molecule (ICAM)-1 (or very late antigen-1, -4), respectively. Fluorescence-activated cell sorter (FACS) analysis was performed (FACSCAN™, Becton Dickinson). Data were analyzed with CELLQUEST™ computer software (Becton Dickinson).

[5] = cd39-null monocyte/macrophages, ATP 200 μmol/L or MCP-1 50 ng/mL, spontaneous 6200±1200
[6] = wild-type monocyte/macrophages, ATP 200 μmol/L or MCP-1 50 ng/mL in lower chamber, spontaneous 4900±400

Molecule	Specific ADPase activity (ATPDase/CD39 [2])	ATPase activity (ATPDase/CD39 [2])	immunoreactive intact CD39 (densitometric analysis of Western blot) (CD39)	rate of ATP hydrolysis by EC (HUVEC [3])	Total cell protein content (HUVEC [4])	migration through MATRIGEL (FIG. 5, in words) (macrophages)	number of transmigrated macrophages (normalized to wild-type) (macrophages)	number of transmigrated macrophages (normalized) (macrophages)	monocyte/macrophages migrated across the endothelial cell monolayer (monocyte/macrophages; [5])	monocyte/macrophages migrated across the endothelial cell monolayer (monocyte/macrophages; [6])	αmβ2 (MAC-1) and ICAM-1 coexpression levels (peritoneal macrophages)	cell surface coexpression of αmβ2 (MAC-1) and ICAM-1 (peritoneal macrophages)	other results
5′-CTCCTTTGTATCTTCCATAAGTAGC-3′ (antisense CTCCTTTGTATCTTCCATAAGTAGC; chimeric second generation modifications, further chemistry not given here) [antisense oligonucleotides]	9.5±3.4 nmole Pi/min/mg protein	15.1±3.4 nmole Pi/min/mg protein	66%	4.8 pmole/min/10^6cells	17.6±2.8 (g/10^6cells	–	–	–	–	–	–	–	ADPase levels, of control cells transfected with CD39 cDNA (ATPDase/CD39 [1]): 15%; ATPase levels, of control cells transfected with CD39 cDNA (ATPDase/CD39 [1]): approximately 5%; ATPase activity, of control levels (ATPDase/CD39 [2]; HUVEC, residual activity): 53%; ATPase activity, of that for scrambled control oligomers (ATPDase/CD39 [2]; HUVEC, residual activity): 51%; Normalized ADPase activity, compared with scrambled oligomers (ATPDase/CD39 [2]; HUVEC, residual activity): 42%; Normalized ADPase activity, of control liposomes (ATPDase/CD39 [2]; HUVEC, residual activity): 36%; apparent decrease in CD39 protein expression (qualitative Western blotting) (CD39; 48 h): approximately 40%; boost of area under curve estimates of ATP release (HUVEC [3]; ADP-stimulated HUVEC, over first 15 min, compared to controls): 194%; cell viability determined by trypan blue exclusion (HUVEC [4]): over 90%; CD39 mRNA expression (Northern blotting) (CD39 mRNA): specifically inhibited transcription of CD39 mRNA
5′-TTCGTATCTTCGCTAGCTTATACAC-3′ (TTCGTATCTTCGCTAGCTTATACAC; chemistry not given here) [scrambled control oligonucleotides]	22.6±2.1 nmole Pi/min/mg protein	29.1±1.2 nmole Pi/min/mg protein	103%	19.6 pmole/min/10^6cells	17.7±1.8 (g/10^6cells	–	–	–	–	–	–	–	–
Nc1ncnc2c1ncn2[C@@H]1O[C@H](COP(=O)(O)OP(=O)(O)OP(=O)(O)O)[C@@H](O)[C@H]1O [ATP, adenosine triphosphate]	–	–	–	–	–	no substantial effect	108±24%	230±20%	8,750±4,100 cells	22,300±3,300 cells	largely unaltered	increased significantly	–
Nc1ncnc2c1ncn2[C@@H]1O[C@H](COP(=O)(O)OP(=O)(O)OP(O)(O)=S)[C@@H](O)[C@H]1O [ATPγS]	–	–	–	–	–	–	–	–	–	–	largely unaltered	increased significantly	–
NCCc1c[nH]c2ccc(O)cc12 [serotonin]	–	–	–	–	–	no substantial effect	98±20.0%	120±20%	–	–	–	–	–
monocyte chemoattractant factor-1 [MCP-1]	–	–	–	–	–	–	303±17%	450±20%	35,200±7,300 cells	61,800±23,400 cells	–	–	–
